Measurements from ChEMBL document CHEMBL1139615, “Structure-based design and synthesis of pyrazinones containing novel P1 'side pocket' moieties as inhibitors of TF/VIIa” (Bioorg Med Chem Lett, 2005).

Key:
[1] = Inhibitory concentration against Trypsin
[2] = Inhibitory concentration against Factor IIa
[3] = Inhibitory concentration against Coagulation factor Xa
Coagulation factor VII = target: T1, Coagulation factor VII (Homo sapiens, UniProt P08709); test: Inhibitory concentration against Coagulation factor VIIa
T1 sequence (P08709 whole entry): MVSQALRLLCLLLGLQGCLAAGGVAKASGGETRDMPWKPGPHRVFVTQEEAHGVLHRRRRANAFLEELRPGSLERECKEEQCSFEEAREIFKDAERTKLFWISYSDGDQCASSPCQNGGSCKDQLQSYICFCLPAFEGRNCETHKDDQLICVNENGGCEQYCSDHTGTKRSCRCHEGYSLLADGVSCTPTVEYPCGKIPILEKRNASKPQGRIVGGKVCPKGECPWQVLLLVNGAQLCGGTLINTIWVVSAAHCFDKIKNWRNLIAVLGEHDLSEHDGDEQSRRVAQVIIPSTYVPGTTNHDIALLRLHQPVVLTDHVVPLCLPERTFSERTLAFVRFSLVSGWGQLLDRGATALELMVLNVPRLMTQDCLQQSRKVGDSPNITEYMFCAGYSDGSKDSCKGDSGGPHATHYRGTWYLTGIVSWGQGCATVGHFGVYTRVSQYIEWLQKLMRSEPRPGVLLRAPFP

Row | SMILES | IC50 [1] [nM] | IC50 [2] [nM] | IC50 [3] [nM] | IC50 (Coagulation factor VII) [nM]
1 | CC[C@@H](C)NC(=O)c1cc(N)cc(-c2cnc(NC(C)C)c(=O)n2CC(=O)NCc2ccc(C(=N)N)cc2C(N)=O)c1 | 20 | 13700 | > 30000 | 6.2
2 | CC[C@@H](C)NC(=O)c1cc(N)cc(-c2cnc(NC(C)C)c(=O)n2CC(=O)NCc2ccc(C(=N)N)cc2C(=O)NCC(=O)O)c1 | 16 | > 30000 | > 30000 | 21
3 | CC[C@@H](C)NC(=O)c1cc(N)cc(-c2cnc(NC(C)C)c(=O)n2CC(=O)NCc2ccc(C(=N)N)cc2C(=O)NCCN2CCOCC2)c1 | 21 | 16700 | > 30000 | 20
4 | CC[C@@H](C)NC(=O)c1cc(N)cc(-c2cnc(NC(C)C)c(=O)n2CC(=O)NCc2ccc(C(=N)N)cc2C(=O)Nc2ccncc2)c1 | 28 | > 30000 | > 30000 | –
5 | CC[C@@H](C)NC(=O)c1cc(N)cc(-c2cnc(NC(C)C)c(=O)n2CC(=O)NCc2ccc(C(=N)N)cc2C(=O)O)c1 | 50 | > 30000 | > 30000 | 152
6 | CC[C@@H](C)NC(=O)c1cc(N)cc(-c2cnc(NC(C)C)c(=O)n2CC(=O)NCc2ccc(C(=N)N)cc2C(=O)NCC(=O)OC)c1 | 31 | 26700 | > 30000 | 23
7 | CC[C@@H](C)NC(=O)c1cc(N)cc(-c2cnc(NC(C)C)c(=O)n2CC(=O)NCc2ccc(C(=N)N)cc2)c1 | 15 | 6100 | > 30000 | 1.7
8 | CC[C@@H](C)NC(=O)c1cc(N)cc(-c2cnc(NC(C)C)c(=O)n2CC(=O)NCc2ccc(C(=N)N)cc2C(=O)NCC(F)(F)F)c1 | 15 | 22600 | > 30000 | 12
